Assay results from publication PMC11413854, “Reversible Control of Native GluN2B-Containing NMDA Receptors with Visible Light” (ACS Chemical Neuroscience, 2024).
Values joined by “and” are separate entries in the source; they are usually repeats but may differ in a detail not shown here. Equal values may be shown once. Read-outs that look alike come from different tables or passages of the source.

How the values were obtained:
GluN1/GluN2C = target: T1, GluN1/GluN2C (Rattus norvegicus, UniProt P35439+Q00961); assay: TEVC on Xenopus oocytes, GluN1/GluN2C diheteromers; assay type: cell-based; conditions: 1 µM trans-OptoNAM-3 (dark); listed as trans-OptoNAM-3
T1 construct: expressed in transfected cells; host or cells: Xenopus laevis oocytes (nuclear cDNA injection)
Text: (§1) NMDARs exist as multiple subtypes in the brain that are formed by the combination of two GluN1 and either two identical (diheteromers) or different (triheteromers) GluN2 (GluN2A-D) subunits.[1] We assessed the selectivity of trans-OptoNAM-3 (dark PSS) for the other NMDAR subtypes.
(§2) We used cDNA coding for rat GluN1–1a (named GluN1 herein) (GenBank: U08261.1), rat GluN2A (GenBank: D13211.1), mouse GluN2B (GenBank: D10651.2), rat GluA1 flop (GenBank: M36418.2), and rat Myc-GluA2(Q)-flip (GenBank: AF164344.1) cloned into pcDNA3-based expression plasmids. GluK2 (GenBank: Z11548.1) corresponds to the fully RNA-edited version.[80] The GluN2B-ΔNTD construct is from ref[45] and GluN2B–N615K is from ref[81]. Single mutants GluN2B-Q110G and GluN1-L135H were from ref[19]. The GluA2 cDNA contains a Myc tag ([…]) fused between the signal peptide and the N-terminus sequences, and the GluA2 subunit is […] for its Q/R/N site (GluA2(Q)) to allow permeation of homomeric GluA2 receptors.[2] cDNAs coding for rat GluN2C (GenBank: M91563.1) and GluN2D subunits (GenBank: L31611.1) were in prK5 plasmids.
(§3) Expression of recombinant NMDA receptors was obtained by oocyte nuclear coinjection of 37 nL of a mixture of cDNAs (at 30 ng/μL) coding for GluN1–1a and various GluN2 subunits (ratio 1:1). The protocol in ref[43] was followed for the expression of GluN1/GluN2A/GluN2B triheteromers. […]

[1] = tested on: GluN1/GluN2A/GluN2B triheteromers; assay: TEVC on Xenopus oocytes, GluN1/GluN2A/GluN2B triheteromers; assay type: cell-based, rat GluN1, rat GluN2A, mouse GluN2B; conditions: 1 µM trans-OptoNAM-3 (dark)
Text: as §1, §2, §3

GluN1-L135H/GluN2B = target: T2, GluN1-L135H/GluN2B (UniProt P35439+Q01097, L135H); assay: TEVC on Xenopus oocytes, ifenprodil site mutant; assay type: cell-based, rat GluN1, mouse GluN2B; conditions: 1 µM trans-OptoNAM-3 (dark)
T2 construct: expressed in transfected cells; host or cells: Xenopus laevis oocytes (nuclear cDNA injection)
Text: (§4) We finally investigated the location of the OptoNAM-3 binding-site on the receptor. […] The binding site for GluN2B-selective antagonists at the GluN1/GluN2B NTD dimer interface contains two partially overlapping pockets that accommodate GluN2B-selective NAMs of distinct chemical scaffolds:[19] either scaffolds related to ifenprodil or scaffolds related to another GluN2B-selective NAM called EVT-101.[47]
as §2, with “prK5 plasmids. […]” for “prK5 plasmids.”

GluK2 kainate receptors = target: T3, GluK2 kainate receptors (Rattus norvegicus, UniProt P42260, I567V/Q621R/Y571C); assay: TEVC on Xenopus oocytes, GluK2 kainate receptors; assay type: cell-based; parameters: Inhibition, individual values: scale not given here; conditions: for Inhibition, individual values: GluK2, single cells
T3 construct: expressed in transfected cells; host or cells: Xenopus laevis oocytes (mRNA injection)
Text: as §2
The expression of recombinant GluA1, GluA2(Q), and GluK2 receptors was obtained by oocyte injection of 50 nL of mRNAs (at 1 μg/μL). mRNAs were generated using the T7 (GluA1 and GluA2) and T3 (GluK2) mMessage mMachine transcription kits (Invitrogen) after cDNA linearization with the SacII restriction enzyme. The injected oocytes were stored in the same conditions as for NMDARs and used 72–96 h postinjection.
TEVC recordings were performed 1–3 days following injection. TEVC recordings were performed using an Oocyte Clamp amplifier OC-725 (Warner Instruments) and computer-controlled via a 1440A Digidata (Molecular Devices). Currents were sampled at 100 Hz and low-pass-filtered at 20 Hz using an 8-pole Bessel filter (900 Series, Frequency Devices Inc.). Data were collected with Clampfit 10.3. During the recording, the cells were continuously perfused with external recording Ringer solution at pH 7.3 (in mM: 100 NaCl, 0.3 BaCl2, 5 HEPES, and 2.5 KCl, pH adjustment to 7.3 by the addition of NaOH). The NMDA currents were induced by simultaneous application of L-glutamate and glycine (agonist solution) at saturating concentration (100 μM each), and DTPA (10 μM) to prevent receptor inhibition by ambient zinc (∼20 nM).[83] A control solution (100 μM glycine and 10 μM DTPA in Ringer pH 7.3) was used for washout of drug and test solutions. AMPA and kainate receptor currents were induced in the same conditions as NMDA currents (100 μM glutamate and glycine + 10 μM DTPA). Oocytes expressing GluK2 kainate receptors were treated with concanavalin A ([…], equivalent to 1.1 mg/mL) during 10 min before recording to decrease receptor desensitization. Unless notified, recordings were performed at a holding potential of −60 mV. All experiments were performed at room temperature.
Oocytes expressing GluK2 receptors were treated with concanavalin A ([…]) before recording to decrease
receptor desensitization.

GluN1/GluN2B-Q110G = target: T4, GluN1/GluN2B-Q110G (UniProt P35439+Q01097, Q110G); assay: TEVC on Xenopus oocytes, EVT-101 site mutant; assay type: cell-based, rat GluN1, mouse GluN2B; conditions: 1 µM trans-OptoNAM-3 (dark)
T4 construct: expressed in transfected cells; host or cells: Xenopus laevis oocytes (nuclear cDNA injection)
Text: as §4
as §2, with “prK5 plasmids. […]” for “prK5 plasmids.”

GluN1/GluN2A = target: T5, GluN1/GluN2A (Rattus norvegicus, UniProt P35439+Q00959); assay: TEVC on Xenopus oocytes, GluN1/GluN2A diheteromers; assay type: cell-based; conditions: 1 µM trans-OptoNAM-3 (dark); listed as trans-OptoNAM-3
T5 construct: expressed in transfected cells; host or cells: Xenopus laevis oocytes (nuclear cDNA injection)
Text: as §1, §2, §3

T3 sequence (P42260 32-908 I567V/Y571C/Q621R): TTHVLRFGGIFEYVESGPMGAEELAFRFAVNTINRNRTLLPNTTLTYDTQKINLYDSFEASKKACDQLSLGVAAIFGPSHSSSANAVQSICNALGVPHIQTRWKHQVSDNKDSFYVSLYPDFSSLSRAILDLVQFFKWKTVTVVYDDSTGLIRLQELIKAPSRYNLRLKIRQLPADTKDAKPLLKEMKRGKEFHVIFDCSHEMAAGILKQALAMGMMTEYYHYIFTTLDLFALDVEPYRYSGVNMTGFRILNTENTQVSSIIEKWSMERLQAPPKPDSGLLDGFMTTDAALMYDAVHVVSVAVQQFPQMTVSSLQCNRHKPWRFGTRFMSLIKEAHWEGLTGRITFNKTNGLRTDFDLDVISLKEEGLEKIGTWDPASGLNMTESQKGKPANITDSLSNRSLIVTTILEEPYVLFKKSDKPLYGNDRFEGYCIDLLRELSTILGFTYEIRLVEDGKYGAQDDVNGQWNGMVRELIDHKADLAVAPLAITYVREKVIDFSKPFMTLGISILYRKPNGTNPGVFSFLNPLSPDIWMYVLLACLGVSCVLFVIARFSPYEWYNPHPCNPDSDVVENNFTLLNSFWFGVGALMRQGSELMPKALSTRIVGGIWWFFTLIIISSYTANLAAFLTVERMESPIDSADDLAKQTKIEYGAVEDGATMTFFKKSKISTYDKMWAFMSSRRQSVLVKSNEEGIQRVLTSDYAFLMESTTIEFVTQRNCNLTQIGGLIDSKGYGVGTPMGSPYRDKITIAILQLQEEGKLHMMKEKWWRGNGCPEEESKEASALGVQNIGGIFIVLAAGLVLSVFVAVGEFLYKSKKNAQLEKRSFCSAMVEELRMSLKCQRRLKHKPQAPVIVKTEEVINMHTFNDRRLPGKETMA
T2 sequence (Q01097 27-1482, other chains not shown): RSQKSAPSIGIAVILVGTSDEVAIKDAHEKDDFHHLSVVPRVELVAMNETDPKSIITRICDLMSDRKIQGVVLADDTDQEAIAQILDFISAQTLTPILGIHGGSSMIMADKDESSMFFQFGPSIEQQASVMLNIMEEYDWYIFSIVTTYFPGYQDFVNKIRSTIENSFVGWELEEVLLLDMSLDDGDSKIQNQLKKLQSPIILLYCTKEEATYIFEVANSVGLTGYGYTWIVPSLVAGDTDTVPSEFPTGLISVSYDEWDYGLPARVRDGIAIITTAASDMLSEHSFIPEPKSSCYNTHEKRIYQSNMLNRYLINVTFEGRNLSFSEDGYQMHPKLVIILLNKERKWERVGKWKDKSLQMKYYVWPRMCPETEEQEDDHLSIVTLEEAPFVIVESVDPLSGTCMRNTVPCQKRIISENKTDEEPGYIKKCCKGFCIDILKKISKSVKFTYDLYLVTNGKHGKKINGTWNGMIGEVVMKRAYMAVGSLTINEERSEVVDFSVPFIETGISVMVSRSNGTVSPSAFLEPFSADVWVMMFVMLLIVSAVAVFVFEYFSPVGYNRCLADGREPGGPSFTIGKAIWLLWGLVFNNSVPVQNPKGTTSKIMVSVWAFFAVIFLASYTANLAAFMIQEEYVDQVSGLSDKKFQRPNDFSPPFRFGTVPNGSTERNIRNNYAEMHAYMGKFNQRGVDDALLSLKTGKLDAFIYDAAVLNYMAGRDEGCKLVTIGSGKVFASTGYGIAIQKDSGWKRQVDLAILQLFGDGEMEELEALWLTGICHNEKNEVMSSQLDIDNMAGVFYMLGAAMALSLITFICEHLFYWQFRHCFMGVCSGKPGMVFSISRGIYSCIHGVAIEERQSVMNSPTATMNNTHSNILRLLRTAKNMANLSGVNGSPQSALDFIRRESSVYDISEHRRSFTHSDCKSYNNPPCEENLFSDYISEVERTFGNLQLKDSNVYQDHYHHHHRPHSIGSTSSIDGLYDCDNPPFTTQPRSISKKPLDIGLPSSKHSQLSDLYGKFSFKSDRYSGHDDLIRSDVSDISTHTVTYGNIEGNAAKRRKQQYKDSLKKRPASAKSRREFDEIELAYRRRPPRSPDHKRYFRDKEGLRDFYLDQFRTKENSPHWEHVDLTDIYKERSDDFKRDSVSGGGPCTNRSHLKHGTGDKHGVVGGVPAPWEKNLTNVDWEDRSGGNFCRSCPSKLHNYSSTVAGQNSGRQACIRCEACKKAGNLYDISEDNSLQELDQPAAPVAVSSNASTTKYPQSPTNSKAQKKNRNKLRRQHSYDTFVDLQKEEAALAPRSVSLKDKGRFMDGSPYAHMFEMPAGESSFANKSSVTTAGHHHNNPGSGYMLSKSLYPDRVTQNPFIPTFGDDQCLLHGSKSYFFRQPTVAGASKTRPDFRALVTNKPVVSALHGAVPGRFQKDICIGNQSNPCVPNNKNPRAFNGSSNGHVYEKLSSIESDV
T4 sequence (Q01097 27-1482 Q110G, other chains not shown): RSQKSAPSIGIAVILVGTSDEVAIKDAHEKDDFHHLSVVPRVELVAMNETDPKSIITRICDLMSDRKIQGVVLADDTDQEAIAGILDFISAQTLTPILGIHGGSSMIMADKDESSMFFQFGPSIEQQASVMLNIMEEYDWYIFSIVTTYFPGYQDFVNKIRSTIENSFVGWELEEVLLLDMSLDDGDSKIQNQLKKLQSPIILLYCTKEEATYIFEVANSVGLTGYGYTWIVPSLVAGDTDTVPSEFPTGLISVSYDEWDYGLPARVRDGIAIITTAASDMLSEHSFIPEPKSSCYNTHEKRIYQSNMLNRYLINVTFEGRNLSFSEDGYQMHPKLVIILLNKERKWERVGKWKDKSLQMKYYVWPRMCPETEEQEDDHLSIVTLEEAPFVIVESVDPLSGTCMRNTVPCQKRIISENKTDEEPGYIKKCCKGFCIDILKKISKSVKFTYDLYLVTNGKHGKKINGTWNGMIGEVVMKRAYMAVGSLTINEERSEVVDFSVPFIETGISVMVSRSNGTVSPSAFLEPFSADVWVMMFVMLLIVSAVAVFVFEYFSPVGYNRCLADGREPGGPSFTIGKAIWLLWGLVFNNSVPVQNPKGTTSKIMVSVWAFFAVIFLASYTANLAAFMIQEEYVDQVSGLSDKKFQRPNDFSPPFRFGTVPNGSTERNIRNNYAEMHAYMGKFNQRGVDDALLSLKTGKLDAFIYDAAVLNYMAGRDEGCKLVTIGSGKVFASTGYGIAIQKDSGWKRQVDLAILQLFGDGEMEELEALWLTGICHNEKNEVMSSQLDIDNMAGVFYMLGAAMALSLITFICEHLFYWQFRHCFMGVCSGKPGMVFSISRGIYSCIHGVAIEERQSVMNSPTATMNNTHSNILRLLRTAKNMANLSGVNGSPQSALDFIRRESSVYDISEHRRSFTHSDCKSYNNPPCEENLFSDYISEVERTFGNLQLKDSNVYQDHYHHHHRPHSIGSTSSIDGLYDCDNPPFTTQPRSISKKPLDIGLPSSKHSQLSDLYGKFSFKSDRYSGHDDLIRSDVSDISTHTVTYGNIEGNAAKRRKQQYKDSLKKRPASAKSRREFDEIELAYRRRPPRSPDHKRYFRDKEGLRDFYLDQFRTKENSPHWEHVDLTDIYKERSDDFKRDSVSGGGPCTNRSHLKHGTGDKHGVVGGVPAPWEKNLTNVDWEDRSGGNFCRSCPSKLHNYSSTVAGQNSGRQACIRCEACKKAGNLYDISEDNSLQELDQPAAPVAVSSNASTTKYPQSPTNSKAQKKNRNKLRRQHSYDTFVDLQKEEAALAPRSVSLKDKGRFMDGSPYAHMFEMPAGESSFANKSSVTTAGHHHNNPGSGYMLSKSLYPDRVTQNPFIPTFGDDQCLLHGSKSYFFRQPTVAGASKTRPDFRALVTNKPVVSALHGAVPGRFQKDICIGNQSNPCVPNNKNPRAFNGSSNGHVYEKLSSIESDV
T1 sequence (Q00961 20-1237, other chains not shown): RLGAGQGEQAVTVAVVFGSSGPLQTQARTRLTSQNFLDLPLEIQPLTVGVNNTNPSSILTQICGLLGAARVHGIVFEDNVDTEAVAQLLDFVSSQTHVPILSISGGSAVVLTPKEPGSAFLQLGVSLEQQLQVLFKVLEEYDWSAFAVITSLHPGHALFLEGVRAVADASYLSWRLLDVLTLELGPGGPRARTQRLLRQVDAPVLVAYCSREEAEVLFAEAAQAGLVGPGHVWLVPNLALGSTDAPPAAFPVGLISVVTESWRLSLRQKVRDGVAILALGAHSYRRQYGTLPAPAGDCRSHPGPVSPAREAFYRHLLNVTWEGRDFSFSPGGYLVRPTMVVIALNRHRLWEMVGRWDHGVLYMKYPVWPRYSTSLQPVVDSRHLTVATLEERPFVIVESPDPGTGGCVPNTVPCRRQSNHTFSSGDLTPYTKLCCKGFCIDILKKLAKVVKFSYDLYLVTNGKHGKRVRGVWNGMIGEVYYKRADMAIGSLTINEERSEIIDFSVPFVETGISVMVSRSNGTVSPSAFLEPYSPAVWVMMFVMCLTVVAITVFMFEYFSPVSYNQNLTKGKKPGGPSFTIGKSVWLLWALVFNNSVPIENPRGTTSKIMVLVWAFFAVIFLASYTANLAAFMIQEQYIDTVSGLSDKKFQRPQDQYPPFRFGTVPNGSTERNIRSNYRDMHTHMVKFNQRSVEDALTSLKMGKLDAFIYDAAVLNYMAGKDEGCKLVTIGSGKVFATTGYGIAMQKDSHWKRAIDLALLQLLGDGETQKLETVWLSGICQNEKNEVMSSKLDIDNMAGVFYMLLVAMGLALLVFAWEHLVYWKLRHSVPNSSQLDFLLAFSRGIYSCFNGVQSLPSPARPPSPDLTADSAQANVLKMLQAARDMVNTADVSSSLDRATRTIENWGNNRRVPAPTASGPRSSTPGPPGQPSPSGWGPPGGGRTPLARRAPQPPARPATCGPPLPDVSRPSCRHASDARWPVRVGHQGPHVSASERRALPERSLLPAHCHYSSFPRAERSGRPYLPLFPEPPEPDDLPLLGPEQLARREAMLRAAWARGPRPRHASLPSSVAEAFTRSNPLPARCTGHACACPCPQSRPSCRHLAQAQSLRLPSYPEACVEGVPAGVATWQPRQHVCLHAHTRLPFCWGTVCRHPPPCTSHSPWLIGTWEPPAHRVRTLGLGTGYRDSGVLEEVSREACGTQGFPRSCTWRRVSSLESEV

With `c1ccc(/N=N/c2ccc(CCNc3ccncc3)cc2)cc1` [OptoNAM-3, (E)-N-(4-(Phenyldiazenyl)phenethyl)pyridin-4-amine] the “inhibition of GluN1/GluN2C” value (GluN1/GluN2C) was 3.2% ± 0.5%, the “inhibition of GluN1/GluN2A/GluN2B triheteromers” value [1] was 11.404% and the “inhibition of GluN1/GluN2A/GluN2B triheteromers” value ([1]; listed as trans-OptoNAM-3) was 11.4% ± 0.9%. For the same molecule, the “inhibition of GluN1-L135H/GluN2B” value (GluN1-L135H/GluN2B) was 13.546%, the inhibition at 10 µM (GluK2 kainate receptors; 10 µM OptoNAM-3 365 nm PSS, construct GluK2, read-out: Inhibition (%)) was -1.6% and the “Inhibition, individual values” (GluK2 kainate receptors; 10 µM OptoNAM-3 dark PSS (trans) as headed, second block) was -0.01064 and 0.02708 and -0.08821 and 0.02098 and -0.02821. The “Inhibition, individual values” (GluK2 kainate receptors; 10 µM OptoNAM-3 dark PSS (trans), first block) was 0.1443 and -0.06723 and 0.004392 and 0.02857 and 0.0441, the inhibition at 10 µM (GluK2 kainate receptors; 10 µM OptoNAM-3 dark PSS (trans), construct GluK2, read-out: Inhibition (%)) was 3.1% and the “inhibition of GluK2 currents” value (GluK2 kainate receptors; 10 µM, dark PSS, concanavalin A treated) was “no effect”. The inhibition at 10 µM (GluK2 kainate receptors; 10 µM, dark PSS, concanavalin A treated, read-out: inhibition of GluK2 currents) was 3.1 ± 3.4%, the “inhibition of GluN1/GluN2B-Q110G” value (GluN1/GluN2B-Q110G) was 65.503% and the “inhibition of GluN1/GluN2A” value (GluN1/GluN2A) was 2.7% ± 0.5%.
